This is an account of results in PubChem BioAssay AID328 (DTP/NCI, 2004).

The assay has as its system BDF1 mice, P388 leukemia ip, median survival T/C. As to the kind of experiment: NCI In Vivo Anticancer Drug Screen. Data for tumor model P388 Leukemia (intraperitoneal) in B6D2F1 (BDF1) mice. The note with it: endpoint: median survival time, higher = longer survival. In short, it runs like this:
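In tumour-bearing mice, survival after compound treatment is set against the vehicle group and given as a quotient.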

The mark [1] stands for this setting: dose: 25.0 mg/kg/injection, schedule: Q01DX009 (ip), vehicle: saline with Tween-80.
[2] abbreviates: dose: 50.0 mg/kg/injection, schedule: Q01DX009 (ip), vehicle: saline with Tween-80.
[3] abbreviates: dose: 100.0 mg/kg/injection, schedule: Q01DX009 (ip), vehicle: saline with Tween-80.
Setting [4] is: dose: 100.0 mg/kg/injection, schedule: Q04DX003 (ip), vehicle: saline with Tween-80.
Setting [5] is: dose: 200.0 mg/kg/injection, schedule: Q01DX009 (ip), vehicle: saline with Tween-80.
Where [6] appears, read: dose: 12.5 mg/kg/injection, schedule: Q01DX009 (ip), vehicle: saline with Tween-80.
[7] abbreviates: dose: 50.0 mg/kg/injection, schedule: Q04DX003 (ip), vehicle: Klucel (hydroxypropylcellulose) (HPC).
[8] abbreviates: dose: 200.0 mg/kg/injection, schedule: Q04DX003 (ip), vehicle: Klucel (hydroxypropylcellulose) (HPC).

Values joined by “and” are separate entries in the source; they are usually repeats but may differ in a detail not shown here. Equal entries are not always repeated. Toxic doses and inconclusive results are not listed.

`O=c1cc(-c2cccs2)ss1`: the T/C is 106 % of control under setting [1]; 97 % of control under setting [2]; 86 % of control and 106 % of control under setting [3]; 106 % of control under setting [4]; 116 % of control under setting [5]; 92 % of control (dose: 200.0 mg/kg/injection, schedule: Q04DX003 (ip), vehicle: saline with Tween-80).
For the molecule `CCN(CC)CCNC(=O)c1ccc(COc2ccccc2)cc1`, the T/C runs as follows: (dose: 50.0 mg/kg/injection, schedule: Q01DX005 (ip), vehicle: saline) 97 % of control; (dose: 100.0 mg/kg/injection, schedule: Q01DX005 (ip), vehicle: saline) 111 % of control; (dose: 200.0 mg/kg/injection, schedule: Q01DX005 (ip), vehicle: saline) 97 % of control.
For `CCOC(=O)CC/C(=C/c1ccccc1)[N+](=O)[O-]`, the T/C reads like this: (dose: 25.0 mg/kg/injection, schedule: Q04DX003 (ip), vehicle: saline with Tween-80) 110 % of control; (dose: 50.0 mg/kg/injection, schedule: Q04DX003 (ip), vehicle: saline with Tween-80) 106 % of control; under setting [4], 119 % of control.
As to `CC1(C)CCC(C#N)=C1N`, the T/C is 95 % of control under setting [6], 91 % of control under setting [1] and 95 % of control under setting [2].
As to `C=C1N(c2nc(Cl)nc(Cl)n2)c2ccccc2C1(C)C`, the T/C was 109 % of control and 111 % of control under setting [6]; 108 % of control and 112 % of control under setting [1]; 116 % of control under setting [2].
For `CO[C@H](C(=O)[C@@H](O)[C@@H](C)O)[C@@H]1Cc2cc3cc(O)c(C)c(O)c3c(O)c2C(=O)[C@H]1O`, the T/C is, setting by setting: (dose: 0.12 mg/kg/injection, schedule: Q01DX009 (ip), vehicle: water) 114 % of control; (dose: 0.25 mg/kg/injection, schedule: Q01DX009 (ip), vehicle: water) 107 % of control; (dose: 0.5 mg/kg/injection, schedule: Q01DX009 (ip), vehicle: water) 114 % of control; (dose: 1.0 mg/kg/injection, schedule: Q01DX009 (ip), vehicle: water) 99 % of control; (dose: 2.0 mg/kg/injection, schedule: Q01DX009 (ip), vehicle: water) 97 % of control; (dose: 4.0 mg/kg/injection, schedule: Q01DX009 (ip), vehicle: water) 99 % of control.
Turning to `CN(C)c1ccc(C=O)c(Oc2ccccc2)c1`, the T/C is, setting by setting: (dose: 12.5 mg/kg/injection, schedule: Q04DX003 (ip), vehicle: Klucel (hydroxypropylcellulose) (HPC)) 91 % of control; (dose: 25.0 mg/kg/injection, schedule: Q04DX003 (ip), vehicle: Klucel (hydroxypropylcellulose) (HPC)) 108 % of control; under setting [7], 91 % of control; under setting [8], 100 % of control; (dose: 400.0 mg/kg/injection, schedule: Q04DX003 (ip), vehicle: Klucel (hydroxypropylcellulose) (HPC)) 100 % of control.
Regarding `CC(=O)NC(CO)(CO)CO`, the T/C by setting is: (dose: 100.0 mg/kg/injection, schedule: Q01DX001 (ip), vehicle: saline) 100 % of control; (dose: 200.0 mg/kg/injection, schedule: Q01DX001 (ip), vehicle: saline) 95 % of control.
With `C=C1C(=O)OC2CC(C)CCC/C(CO)=C/C(OC(=O)/C(=C/CO)CO)C12` (stereo unspecified), the T/C was 104 % of control (dose: 3.5 mg/kg/injection, schedule: Q01DX009 (ip), vehicle: saline) and 108 % of control (dose: 7.0 mg/kg/injection, schedule: Q01DX009 (ip), vehicle: saline).
On to `COC(=O)CN(c1c(C)cc(C)c(N)c1C)S(=O)(=O)c1ccccc1`, for which the T/C runs as follows: (dose: 100.0 mg/kg/injection, schedule: Q01DX001 (ip), vehicle: Klucel (hydroxypropylcellulose) (HPC)) 91 % of control; (dose: 400.0 mg/kg/injection, schedule: Q01DX001 (ip), vehicle: Klucel (hydroxypropylcellulose) (HPC)) 100 % of control.
Take `Cc1ccc(S(=O)(=O)OCCN(CCOS(=O)(=O)c2ccc(C)cc2)c2ccc(F)cc2)cc1`: the T/C is 190 % of control (dose: 29.3 mg/kg/injection, schedule: Q01DX009 (ip), vehicle: other); 213 % of control (dose: 44.0 mg/kg/injection, schedule: Q01DX009 (ip), vehicle: other); 245 % of control and 272 % of control (dose: 66.0 mg/kg/injection, schedule: Q01DX009 (ip), vehicle: other); 105 % of control (dose: 66.0 mg/kg/injection, schedule: Q04DX003 (ip), vehicle: saline sonified); 100 % of control (dose: 100.0 mg/kg/injection, schedule: Q04DX003 (ip), vehicle: saline sonified); 105 % of control (dose: 150.0 mg/kg/injection, schedule: Q04DX003 (ip), vehicle: saline sonified). Also, the T/C is 113 % of control (dose: 200.0 mg/kg/injection, schedule: Q01DX009 (ip), vehicle: other); 154 % of control (dose: 200.0 mg/kg/injection, schedule: Q04DX003 (ip), vehicle: other); 150 % of control (dose: 400.0 mg/kg/injection, schedule: Q04DX003 (ip), vehicle: other).
Regarding `O=C(NNc1ccccc1)c1ccccc1`, the T/C runs as follows: (dose: 50.0 mg/kg/injection, schedule: Q01DX009 (ip), vehicle: Klucel (hydroxypropylcellulose) (HPC)) 105 % of control; under setting [7], 109 % of control; (dose: 100.0 mg/kg/injection, schedule: Q01DX009 (ip), vehicle: Klucel (hydroxypropylcellulose) (HPC)) 105 % of control; (dose: 100.0 mg/kg/injection, schedule: Q04DX003 (ip), vehicle: Klucel (hydroxypropylcellulose) (HPC)) 104 % of control; (dose: 200.0 mg/kg/injection, schedule: Q01DX009 (ip), vehicle: Klucel (hydroxypropylcellulose) (HPC)) 120 % of control; under setting [8], 100 % of control.
With `S=c1nc[nH]c2nc[nH]c12`, the T/C under setting [6] was 104 % of control; the T/C (dose: 15.0 mg/kg/injection, schedule: Q01DX010 (ip), vehicle: saline) is 150 % of control; the T/C (dose: 20.0 mg/kg/injection, schedule: Q01DX010 (ip), vehicle: saline) is 100 % of control; the T/C (dose: 20.0 mg/kg/injection, schedule: Q01DX010 (ip), vehicle: water) was 110 % of control; the T/C under setting [1] was 113 % of control; the T/C (dose: 26.0 mg/kg/injection, schedule: Q01DX009 (ip), vehicle: alkali diluted with saline) is 104 % of control and 107 % of control. Further, the T/C by setting is: (dose: 30.0 mg/kg/injection, schedule: Q01DX010 (ip), vehicle: saline) 90 % of control and 104 % of control; (dose: 40.0 mg/kg/injection, schedule: Q01DX010 (ip), vehicle: saline) 100 % of control; (dose: 40.0 mg/kg/injection, schedule: Q01DX010 (ip), vehicle: water) 110 % of control; (dose: 60.0 mg/kg/injection, schedule: Q01DX010 (ip), vehicle: water) 110 % of control; (dose: 72.0 mg/kg/injection, schedule: Q01DX009 (ip), vehicle: alkali diluted with saline) 117 % of control; (dose: 80.0 mg/kg/injection, schedule: Q01DX010 (ip), vehicle: saline) 104 % of control. The T/C reads like this: (dose: 90.0 mg/kg/injection, schedule: Q01DX009 (ip), vehicle: alkali diluted with saline) 107 % of control and 111 % of control; (dose: 120.0 mg/kg/injection, schedule: Q01DX009 (ip), vehicle: alkali diluted with saline) 103 % of control; (dose: 120.0 mg/kg/injection, schedule: Q01DX010 (ip), vehicle: saline) 109 % of control; (dose: 160.0 mg/kg/injection, schedule: Q01DX010 (ip), vehicle: saline) 90 % of control.
On to `CNc1ccccc1O`, for which the T/C was 102 % of control under setting [2], 98 % of control under setting [3] and 95 % of control under setting [5].
For the molecule `CCC(C)P(=O)(N1CC1)N1CC1` (stereo unspecified), under “dose: 37.5 mg/kg/injection, schedule: Q04DX003 (ip), vehicle: saline”, the T/C is 108 % of control.
For the molecule `CO[C@H]1OC(=O)C=C2C1=C[C@H]1OC(=O)[C@@]3(C)CCC[C@@]2(C)[C@@H]13`, the T/C is 100 % of control (dose: 12.5 mg/kg/injection, schedule: Q01DX009 (ip), vehicle: Klucel (hydroxypropylcellulose) (HPC)) and 100 % of control (dose: 25.0 mg/kg/injection, schedule: Q01DX009 (ip), vehicle: Klucel (hydroxypropylcellulose) (HPC)).
Consider `O=C(Cn1ccc(O)cc1=O)c1cccs1`, for which the T/C was 97 % of control under setting [3]; 97 % of control under setting [5]; 97 % of control (dose: 400.0 mg/kg/injection, schedule: Q01DX009 (ip), vehicle: saline with Tween-80).
On to `CN1c2ccc(Cl)cc2C(=O)NC1c1ccc([N+](=O)[O-])s1` (stereo unspecified), for which the T/C is, setting by setting: under setting [2], 98 % of control and 110 % of control; under setting [3], 104 % of control and 113 % of control; under setting [5], 112 % of control.
As for `CCOC(=O)C(F)C(Br)C(=O)OCC` (stereo unspecified), the T/C under setting [2] was 96 % of control and 101 % of control; the T/C under setting [3] is 116 % of control; the T/C under setting [5] was 154 % of control.
